Laboratory results from patent US8481539B2, “Alkynylaryl compounds and salts thereof, pharmaceutical compositions comprising same, methods of preparing same and uses of same” (Bayer Intellectual Property GmbH, priority 2007, dated 2013).

What was measured:
human Trk-A = molecular target: T1, human Trk-A (Homo sapiens, UniProt P04629); assay: TrkA HTRF Assay (assay 7); type: biochemical; settings: pIC50 class; 10 μM ATP; read-out: Enzymatic TrkA activity (assay 7)
T1 construct: C-terminal fragment of human Trk-A (amino acids G443-G796); GST; His; purchased Proqinase [Freiburg i.Brsg., Germany]; host or cells: insect cells [SF9]
From the text: Trk-A inhibitory activity of compounds of the present invention was quantified employing the Trk-A HTRF assay as described in the following paragraphs.
As kinase, a GST-His fusion protein containing a C-terminal fragment of human Trk-A (amino acids G443-G796, expressed in insect cells [SF9] and purified by affinity chromatography, purchased from Proqinase [Freiburg i.Brsg., Germany] was used. As substrate for the kinase reaction the biotinylated poly-Glu, Tyr (4:1) copolymer (#61GT0BLA) from Cis Biointernational (Marcoule, France) was used. For the assay 50 nl of a 100 fold concentrated solution of the test compound in DMSO was pipetted into a black low volume 384 well microtiter plate (Greiner Bio-One, Frickenhausen, Germany), 2 μl of a solution of TrkA in aqueous assay buffer [8 mM MOPS/NaOH pH 7.0, 10 mM Mg(OAc)2, 1 mM dithiothreitol, 0.01% (v/v) NP-40 (Fluka), 0.2 mM EDTA] were added and the mixture was incubated for 15 min at 22° C. to allow pre-binding of the test compounds to the enzyme before the start of the kinase reaction. Then the kinase reaction was started by the addition of 3 μl of a solution of adenosine-tri-phosphate (ATP, 16.7 μM=>final conc. in the 5 μl assay volume is 10 μM) and substrate (2.27 μg/ml=>final conc. in the 5 μl assay volume is 1.36 μg/ml [˜30 nM]) in assay buffer and the resulting mixture was incubated for a reaction time of 60 min at 22° C. The concentration of Trk-A in the assay was adjusted depending of the activity of the enzyme lot and was chosen appropriate to have the assay in the linear range, typical enzyme concentrations were in the range of about 60 pg/μl (final conc. in the 5 μl assay volume). The reaction was stopped by the addition of 5 μl of a solution of HTRF detection reagents (200 nM streptavidine-XLent [Cis Biointernational] and 1.4 nM PT66-Eu-Chelate, an europium-chelate labelled anti-phospho-tyrosine antibody from Perkin Elmer) in an aqueous EDTA-solution (100 mM EDTA, 0.2% (w/v) bovine serum albumin in 50 mM HEPES/NaOH pH 7.5).
(§1) The resulting mixture was incubated 1 h at 22° C. to allow the binding of the biotinylated phosphorylated peptide to the streptavidine-XLent and the PT66-Eu-Chelate. Subsequently the amount of phosphorylated substrate was evaluated by measurement of the resonance energy transfer from the PT66-Eu-Chelate to the streptavidine-XLent. Therefore, the fluorescence emissions at 620 nm and 665 nm after excitation at 350 nm was measured in a HTRF reader, e.g. a Rubystar (BMG Labtechnologies, Offenburg, Germany) or a Viewlux (Perkin-Elmer). The ratio of the emissions at 665 nm and at […] was taken as the measure for the amount of phosphorylated substrate. The data were normalised (enzyme reaction without inhibitor=0% inhibition, all other assay components but no enzyme=100% inhibition).

[1] = molecular target: T2, human insuline receptor (Ins-R) (Homo sapiens, UniProt P06213); assay: Insulin Receptor HTRF Assay (assay 4); type: biochemical; settings: pIC50 class; 10 μM ATP; read-out: Enzymatic InsR activity (assay 4)
T2 construct: GST-tagged recombinant kinase domain of the human insuline receptor; GST; purchased ProQinase, Freiburg, Germany; host or cells: SF-9 cells
Experimental: Assay 4: Insulin Receptor HTRF Assay
Inhibitory activity of compounds against the kinase activity of the insulin receptor was quantified employing the Ins-R HTRF assay as described in the following paragraphs.
GST-tagged recombinant kinase domain of the human insuline receptor (Ins-R, purchase from ProQinase, Freiburg, Germany) expressed in SF-9 cells was used as kinase. As substrate for the kinase reaction biotinylated poly-(Glu, Tyr) (Cis biointernational, France) was used.
Ins-R was incubated for 20 min at 22° C. in the presence of different concentrations of test compounds in 5 μl assay buffer [50 mM Hepes/NaOH pH 7, 15 mM MnCl2, 1 mM dithiothreitol, 0.1 μM sodium ortho-vanadate, 0.015% (v/v) PEG20000, 10 μM adenosine-tri-phosphate (ATP), 0.3 μg/ml substrate, 1% (v/v) dimethylsulfoxide]. The concentration of Ins-R was adjusted depending of the activity of the enzyme lot and was chosen appropriate to have the assay in the linear range, typical concentrations were in the range of 10 pg/μl. The reaction was stopped by the addition of 5 μl of a solution of HTRF detection reagents (0.1 μM streptavidine-XLent and 1 nM PT66-Eu-Chelate, an europium-chelate labelled anti-phospho-tyrosine antibody from Perkin Elmer) in an aqueous EDTA-solution (80 mM EDTA, 0.2% (w/v) bovine serum albumin in 50 mM HEPES/NaOH pH 7.0).
as §1, with “inhibition) and IC50 values were calculated by a 4 parameter fit using an inhouse software.” for “inhibition).”

T2 sequence (P06213 1023-1298 limits assumed): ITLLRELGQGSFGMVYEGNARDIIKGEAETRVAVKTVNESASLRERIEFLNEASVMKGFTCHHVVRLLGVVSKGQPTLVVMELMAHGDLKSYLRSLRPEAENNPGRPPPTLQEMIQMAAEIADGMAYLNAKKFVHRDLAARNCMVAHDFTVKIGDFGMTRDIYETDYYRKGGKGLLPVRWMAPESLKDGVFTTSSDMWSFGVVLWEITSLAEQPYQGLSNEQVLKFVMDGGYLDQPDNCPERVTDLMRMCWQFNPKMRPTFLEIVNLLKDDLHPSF
T1 sequence (P04629 443-796): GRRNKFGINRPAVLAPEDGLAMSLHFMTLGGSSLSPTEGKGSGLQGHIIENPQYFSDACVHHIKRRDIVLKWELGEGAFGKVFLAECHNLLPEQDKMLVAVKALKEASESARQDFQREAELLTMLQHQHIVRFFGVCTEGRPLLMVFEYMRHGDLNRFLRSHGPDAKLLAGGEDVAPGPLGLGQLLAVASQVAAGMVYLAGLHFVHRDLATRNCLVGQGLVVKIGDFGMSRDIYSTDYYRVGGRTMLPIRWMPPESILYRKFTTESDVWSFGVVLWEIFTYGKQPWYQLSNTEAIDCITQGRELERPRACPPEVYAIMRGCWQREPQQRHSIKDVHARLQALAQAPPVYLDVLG

Row | Compound | IC50 (human Trk-A) | IC50 [1]
1 | Cc1ccc(NC(=O)c2cccc(C(F)(F)F)c2)cc1C#Cc1cncc2c1cnn2C [Example 1.6, N-[4-Methyl-3-(1-methyl-1H-pyrazolo[3,4-c]pyridin-4-ylethynyl)-phenyl]-3-trifluoromethyl-benzamide] | ≥ 10 µM | ≥ 10 µM
2 | Cn1ncc2c(C#Cc3cccc(NC(=O)c4cccc(C(F)(F)F)c4)c3)cncc21 [Example 1.5, N-[3-(1-Methyl-1H-pyrazolo[3,4-c]pyridin-4-ylethynyl)-phenyl]-3-trifluoromethyl-benzamide] | ≥ 10 µM | ≥ 10 µM
3 | Cn1ncc2c(C#Cc3cc(NC(=O)c4cccc(C(F)(F)F)c4)ccc3F)cncc21 [Example 1.9, N-[4-Fluoro-3-(1-methyl-1H-pyrazolo[3,4-c]pyridin-4-ylethynyl)-phenyl]-3-trifluoromethyl-benzamide] | ≥ 10 µM | ≥ 10 µM

Other lines, results leading:

Row | IC50 (human Trk-A) | IC50 [1] | Compound
4 | ≥ 10 µM | – | Cc1ccc(NC(=O)Nc2cccc(C(F)(F)F)c2)cc1C#Cc1cncc2c1cnn2C [Example 2.4, 1-[4-Methyl-3-(1-methyl-1H-pyrazolo[3,4-c]pyridin-4-ylethynyl)-phenyl]-3-(3-trifluoromethyl-phenyl)-urea]
5 | ≥ 10 µM | – | Cn1ncc2c(C#Cc3cccc(NC(=O)Nc4ccccc4)c3)cncc21 [Example 2.1, 1-[3-(1-Methyl-1H-pyrazolo[3,4-c]pyridin-4-ylethynyl)-phenyl]-3-phenyl-urea]
